Reference: patent US8952024B2, “Herbicidal pyrimidone derivatives” (E I du Pont de Nemours and Company, priority 2009, dated 2015)

Columns and labels:
Type in all cases: in vivo
[1] = test system: barnyardgrass (Echinochloa crus-galli); experiment: Test A pre-/postemergence plant response
Text: (§1) Seeds of barnyardgrass (Echinochloa crus-galli), large crabgrass (Digitaria sanguinalis), giant foxtail (Setaria faberii), morningglory (Ipomoea spp.), pigweed (Amaranthus retroflexus), velvetleaf (Abutilon theophrasti), wheat (Triticum aestivum) and corn (Zea mays) were planted into a blend of loam soil and sand and treated preemergence with a directed soil spray using test chemicals formulated in a non-phytotoxic solvent mixture which included a surfactant. At the same time these species were also treated with postemergence applications of test compounds formulated in the same manner.
(§2) Plants ranged in height from two to ten cm and were in the one- to two-leaf stage for the postemergence treatment. Treated plants and untreated controls were maintained in a greenhouse for approximately ten days, after which time all treated plants were compared to untreated controls and visually evaluated for injury. Plant response ratings, summarized in Table A, are based on a 0 to 100 scale where 0 is no effect and 100 is complete control. A dash (-) response means no test result.

corn (Zea mays) = experiment: Test A pre-/postemergence plant response
Text: as §1, §2

[2] = test system: giant foxtail (Setaria faberii); experiment: Test A pre-/postemergence plant response
Text: as §1, §2

[3] = test system: large crabgrass (Digitaria sanguinalis); experiment: Test A pre-/postemergence plant response
Text: as §1, §2

[4] = test system: morningglory (Ipomoea spp.); experiment: Test A pre-/postemergence plant response
Text: as §1, §2

[5] = test system: pigweed (Amaranthus retroflexus); experiment: Test A pre-/postemergence plant response
Text: as §1, §2

[6] = test system: velvetleaf (Abutilon theophrasti); experiment: Test A pre-/postemergence plant response
Text: as §1, §2

[7] = test system: wheat (Triticum aestivum); experiment: Test A pre-/postemergence plant response
Text: as §1, §2

[8] = test system: barnyardgrass (Echinochloa crus-galli); experiment: Test B flooded paddy test; settings: for Plant response rating, Flood, Barnyardgrass: 250 g ai/ha, flooded paddy test, visual rating on 0 to 100 scale (0 no effect, 100 complete control) after 13 to 15 days; for Plant response rating, Barnyardgrass: Flood (flooded paddy test), 13 to 15 days; for Barnyardgrass plant response rating: Flood, 31 g ai/ha, scale 0 to 100 (0 no effect, 100 complete control)
Procedure, shortened: (§3)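 Greenhouse-held for 13 to 15 days, treated pots were compared visually with controls and scored 0–100 (0, no effect). Treatment had been made into paddy water kept at 3 cm above the soil, with plants at the 2-leaf stage.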

[9] = test system: ducksalad (Heteranthera limosa); experiment: Test B flooded paddy test; settings: for Plant response rating, Flood, Ducksalad: 250 g ai/ha, flooded paddy test, visual rating on 0 to 100 scale (0 no effect, 100 complete control) after 13 to 15 days; for Plant response rating, Ducksalad: Flood (flooded paddy test), 13 to 15 days; for Ducksalad plant response rating: Flood, 31 g ai/ha, scale 0 to 100 (0 no effect, 100 complete control)
Procedure, shortened: as §3

rice (Oryza sativa) = experiment: Test B flooded paddy test; settings: for Plant response rating, Flood, Rice: 250 g ai/ha, flooded paddy test, visual rating on 0 to 100 scale (0 no effect, 100 complete control) after 13 to 15 days; for Plant response rating, Rice: Flood (flooded paddy test), 13 to 15 days; for Rice plant response rating: Flood, 31 g ai/ha, scale 0 to 100 (0 no effect, 100 complete control)
Procedure, shortened: as §3

[10] = test system: umbrella sedge (Cyperus difformis); experiment: Test B flooded paddy test; settings: for Plant response rating, Flood, Sedge, Umbrella: 250 g ai/ha, flooded paddy test, visual rating on 0 to 100 scale (0 no effect, 100 complete control) after 13 to 15 days; for Plant response rating, Sedge, Umbrella: Flood (flooded paddy test), 13 to 15 days; for Sedge, Umbrella plant response rating: Flood, 31 g ai/ha, scale 0 to 100 (0 no effect, 100 complete control)
Procedure, shortened: as §3

[11] = Postemergence, 125 g ai/ha, 0 to 100 scale where 0 is no effect and 100 is complete control
[12] = Postemergence, 500 g ai/ha, 0 to 100 scale, 0 = no effect, 100 = complete control, approx. ten days
[13] = Preemergence, 125 g ai/ha, 0 to 100 scale, 0 = no effect, 100 = complete control
[14] = Preemergence, 500 g ai/ha, visual injury, 0 to 100 scale (0 no effect, 100 complete control), approx. ten days
[15] = 62 g ai/ha, scale of 0 to 100 where 0 is no effect and 100 is complete control
[16] = 125 g ai/ha, scale 0 to 100, 0 is no effect, 100 is complete control

O=C1CCCC(O)=C1C(=O)c1cnc(C2CCC2)n(-c2ccccc2)c1=O [Compound 114]
40: Plant response rating, Foxtail, Giant [2, 13] | Plant response rating, Flood, Barnyardgrass [8] | Plant response rating, Flood, Sedge, Umbrella [10]
75: Plant response rating, Flood, Ducksalad [9]
50: Plant response rating, Corn (corn (Zea mays); [12])
70: Plant response rating, Barnyardgrass [1, 11] | Plant response rating, Velvetleaf [6, 13]
65: Plant response rating, Ducksalad [9, 15]
0: Plant response rating, Corn (corn (Zea mays); [13]) | Plant response rating, Corn (corn (Zea mays); [14]) | Plant response rating, Morningglory [4, 13] | Plant response rating, Wheat [7, 11] | Plant response rating, Wheat [7, 12] | Plant response rating, Wheat [7, 13] | Plant response rating, Rice (rice (Oryza sativa); [15])
100: Plant response rating, Crabgrass, Large [3, 14] | Plant response rating, Morningglory [4, 12] | Plant response rating, Pigweed [5, 11] | Plant response rating, Pigweed [5, 12] | Plant response rating, Pigweed [5, 13] | Plant response rating, Pigweed [5, 14] | Plant response rating, Velvetleaf [6, 11] | Plant response rating, Velvetleaf [6, 12] | Plant response rating, Velvetleaf [6, 14]
20: Plant response rating, Wheat [7, 14] | Plant response rating, Barnyardgrass [8, 15] | Plant response rating, Flood, Rice (rice (Oryza sativa))
10: Plant response rating, Corn (corn (Zea mays); [11])
90: Plant response rating, Barnyardgrass [1, 12] | Plant response rating, Barnyardgrass [1, 14] | Plant response rating, Crabgrass, Large [3, 12] | Plant response rating, Crabgrass, Large [3, 13] | Plant response rating, Morningglory [4, 11]
30: Plant response rating, Barnyardgrass [1, 13] | Plant response rating, Sedge, Umbrella [10, 15]
80: Plant response rating, Foxtail, Giant [2, 12] | Plant response rating, Foxtail, Giant [2, 14] | Plant response rating, Crabgrass, Large [3, 11] | Plant response rating, Morningglory [4, 14]
60: Plant response rating, Foxtail, Giant [2, 11]

CCn1c(-c2cccc(F)c2)ncc(C(=O)C2=C(O)CCCC2=O)c1=O [Compound 124]
100: Plant response rating, Morningglory [4, 11] | Plant response rating, Morningglory [4, 12] | Plant response rating, Pigweed [5, 12] | Plant response rating, Pigweed [5, 13] | Plant response rating, Pigweed [5, 14] | Plant response rating, Velvetleaf [6, 11] | Plant response rating, Velvetleaf [6, 12] | Plant response rating, Velvetleaf [6, 14]
80: Plant response rating, Morningglory [4, 14]
70: Plant response rating, Foxtail, Giant [2, 12] | Plant response rating, Crabgrass, Large [3, 11] | Plant response rating, Velvetleaf [6, 13]
40: Plant response rating, Barnyardgrass [1, 11] | Plant response rating, Foxtail, Giant [2, 14] | Plant response rating, Flood, Sedge, Umbrella [10]
90: Plant response rating, Barnyardgrass [1, 12] | Plant response rating, Crabgrass, Large [3, 12] | Plant response rating, Crabgrass, Large [3, 14] | Plant response rating, Pigweed [5, 11]
50: Plant response rating, Foxtail, Giant [2, 11]
30: Plant response rating, Flood, Barnyardgrass [8]
60: Plant response rating, Barnyardgrass [1, 14] | Plant response rating, Crabgrass, Large [3, 13] | Plant response rating, Morningglory [4, 13]
10: Plant response rating, Foxtail, Giant [2, 13]
0: Plant response rating, Corn (corn (Zea mays); [11]) | Plant response rating, Corn (corn (Zea mays); [13]) | Plant response rating, Corn (corn (Zea mays); [14]) | Plant response rating, Wheat [7, 11] | Plant response rating, Wheat [7, 12] | Plant response rating, Wheat [7, 13] | Plant response rating, Wheat [7, 14] | Plant response rating, Barnyardgrass [8, 15] | Plant response rating, Barnyardgrass [8, 16] | Barnyardgrass plant response rating [8] | Plant response rating, Flood, Ducksalad [9] | Plant response rating, Ducksalad [9, 15] | Plant response rating, Ducksalad [9, 16] | Ducksalad plant response rating [9] | Rice plant response rating (rice (Oryza sativa)) | Plant response rating, Sedge, Umbrella [10, 15] | Sedge, Umbrella plant response rating [10]
15: Plant response rating, Rice (rice (Oryza sativa); [15])
20: Plant response rating, Barnyardgrass [1, 13] | Plant response rating, Corn (corn (Zea mays); [12]) | Plant response rating, Flood, Rice (rice (Oryza sativa)) | Plant response rating, Rice (rice (Oryza sativa); [16]) | Plant response rating, Sedge, Umbrella [10, 16]

Cc1cc(-n2c(-c3cccc(Br)c3)ncc(C(=O)C3=C(O)CCCC3=O)c2=O)ccc1F [Compound 132]
100: Plant response rating, Barnyardgrass [1, 14] | Plant response rating, Crabgrass, Large [3, 14] | Plant response rating, Velvetleaf [6, 11] | Plant response rating, Velvetleaf [6, 12] | Plant response rating, Flood, Ducksalad [9] | Plant response rating, Flood, Sedge, Umbrella [10]
90: Plant response rating, Barnyardgrass [1, 12] | Plant response rating, Foxtail, Giant [2, 14] | Plant response rating, Morningglory [4, 11] | Plant response rating, Morningglory [4, 12] | Plant response rating, Pigweed [5, 12]
70: Plant response rating, Foxtail, Giant [2, 12] | Plant response rating, Crabgrass, Large [3, 12]
0: Plant response rating, Corn (corn (Zea mays); [11]) | Plant response rating, Corn (corn (Zea mays); [13]) | Plant response rating, Foxtail, Giant [2, 11] | Plant response rating, Morningglory [4, 13] | Plant response rating, Wheat [7, 11] | Plant response rating, Wheat [7, 13] | Plant response rating, Barnyardgrass [8, 15] | Plant response rating, Barnyardgrass [8, 16] | Barnyardgrass plant response rating [8] | Ducksalad plant response rating [9] | Plant response rating, Flood, Rice (rice (Oryza sativa)) | Plant response rating, Rice (rice (Oryza sativa); [15]) | Plant response rating, Rice (rice (Oryza sativa); [16]) | Rice plant response rating (rice (Oryza sativa)) | Plant response rating, Sedge, Umbrella [10, 15] | Sedge, Umbrella plant response rating [10]
80: Plant response rating, Pigweed [5, 14] | Plant response rating, Velvetleaf [6, 14] | Plant response rating, Ducksalad [9, 16]
40: Plant response rating, Corn (corn (Zea mays); [12])
60: Plant response rating, Pigweed [5, 11] | Plant response rating, Sedge, Umbrella [10, 16]
20: Plant response rating, Corn (corn (Zea mays); [14]) | Plant response rating, Foxtail, Giant [2, 13] | Plant response rating, Crabgrass, Large [3, 11]
10: Plant response rating, Barnyardgrass [1, 11] | Plant response rating, Barnyardgrass [1, 13] | Plant response rating, Pigweed [5, 13] | Plant response rating, Wheat [7, 14]
30: Plant response rating, Morningglory [4, 14] | Plant response rating, Wheat [7, 12] | Plant response rating, Flood, Barnyardgrass [8]
50: Plant response rating, Crabgrass, Large [3, 13] | Plant response rating, Velvetleaf [6, 13] | Plant response rating, Ducksalad [9, 15]

CCCn1c(-c2ccc(Br)cc2)ncc(C(=O)C2=C(O)CCCC2=O)c1=O [Compound 134]
70: Plant response rating, Foxtail, Giant [2, 12] | Plant response rating, Pigweed [5, 11] | Plant response rating, Velvetleaf [6, 13] | Plant response rating, Velvetleaf [6, 14]
30: Plant response rating, Foxtail, Giant [2, 14] | Plant response rating, Crabgrass, Large [3, 14] | Plant response rating, Morningglory [4, 14]
40: Plant response rating, Foxtail, Giant [2, 11]
80: Plant response rating, Crabgrass, Large [3, 12] | Plant response rating, Pigweed [5, 12]
60: Plant response rating, Barnyardgrass [1, 12] | Plant response rating, Morningglory [4, 12] | Plant response rating, Pigweed [5, 14]
20: Plant response rating, Corn (corn (Zea mays); [12])
0: Plant response rating, Barnyardgrass [1, 13] | Plant response rating, Corn (corn (Zea mays); [11]) | Plant response rating, Corn (corn (Zea mays); [13]) | Plant response rating, Corn (corn (Zea mays); [14]) | Plant response rating, Foxtail, Giant [2, 13] | Plant response rating, Crabgrass, Large [3, 13] | Plant response rating, Morningglory [4, 11] | Plant response rating, Pigweed [5, 13] | Plant response rating, Wheat [7, 11] | Plant response rating, Wheat [7, 12] | Plant response rating, Wheat [7, 13] | Plant response rating, Wheat [7, 14] | Plant response rating, Flood, Barnyardgrass [8] | Plant response rating, Barnyardgrass [8, 15] | Plant response rating, Flood, Ducksalad [9] | Plant response rating, Ducksalad [9, 15] | Plant response rating, Flood, Rice (rice (Oryza sativa)) | Plant response rating, Rice (rice (Oryza sativa); [15]) | Plant response rating, Flood, Sedge, Umbrella [10] | Plant response rating, Sedge, Umbrella [10, 15]
50: Plant response rating, Crabgrass, Large [3, 11]
100: Plant response rating, Velvetleaf [6, 11] | Plant response rating, Velvetleaf [6, 12]
10: Plant response rating, Barnyardgrass [1, 11] | Plant response rating, Barnyardgrass [1, 14]
